Test [1] relates to NCI-H1341 (Small Cell Lung Carcinoma). Briefly: Bliss excess, mean over the matrix (fraction); higher = more synergy. In a few lines:
(§1)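 Cell lines grown in DMEM/F12 or RPMI with 10% FBS were plated in 1536-well plates and held 24 hours at 37°C, 5% CO2 before 72 hours of exposure to two-drug dose matrices, with DMSO typically at 0.2%. CellTiter-Glo 2.0 luminescence gave viability, which was converted to inhibition. Vehicle wells were set to 0 and blank wells to 1. Combination Emax is the second-highest inhibition in the matrix, and Bliss excess is the observed combination effect minus the expected EA + EB − EA·EB, where EA and EB are the single-agent effects.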

Test [2] has as its system SKG-IIIa (Cervical Carcinoma). The description is as above. In a few lines:
as §1

Test [3] has as its system SUP-M2 (T-Cell Non-Hodgkin's Lymphoma). The description is as above. In a few lines: as §1
For test [4], the system named is DBTRG-05MG (Glioblastoma). Briefly: combination Emax (second highest fraction inhibited in the dose matrix, 72 h); higher = more inhibition; extreme values may be limits of the assay. An outline of the steps:
as §1

In test [5] the test system is ES6 (Ewing's Sarcoma). Described as above. An outline of the steps:
as §1

Test [6] deals with GAK (Melanoma). The description is as above. An outline of the steps:
as §1

Test [7] relates to IST-MEL1 (Melanoma). The test is described as above. In a few lines: as §1
In test [8] the test system is KALS-1 (Glioblastoma). The description is as above. In a few lines:
as §1

The subject of test [9] is MM1S (Plasma Cell Myeloma). Described as above. An outline of the steps: as §1
The test system of test [10] is MS-1 (Small Cell Lung Carcinoma). Described as above. In a few lines:
as §1

Test [11] has as its system NAMALWA (Burkitt's Lymphoma). The description is as above. An outline of the steps: as §1
The test system of test [12] is NCI-H1341 (Small Cell Lung Carcinoma). The test is described as above. An outline of the steps:
as §1

Test [13] relates to NCI-H2373 (Mesothelioma). The test is described as above. In a few lines: as §1
In test [14] the test system is OAW-28 (Ovarian Carcinoma). Described as above. An outline of the steps:
as §1

Test [15] relates to P30-OHK (B-Lymphoblastic Leukemia). Described as above. An outline of the steps:
as §1

Test [16] has as its system PL4 (Pancreatic Carcinoma). The test is described as above. An outline of the steps: as §1
Test [17] relates to SK-CO-1 (Colorectal Carcinoma). The description is as above. An outline of the steps:
as §1

Test [18] relates to SiHa (Cervical Carcinoma). Described as above. An outline of the steps:
as §1

Test [19] has as its system T47D (Breast Carcinoma). Described as above. An outline of the steps:
as §1

In test [20] the test system is ZR-75-30 (Breast Carcinoma). The test is described as above. In a few lines: as §1
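Throughout, for Bliss excess, mean over the matrix: after 72 h of two-drug dosing.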

Take `CC1(C)CCC(CN2CCN(c3ccc(C(=O)NS(=O)(=O)c4ccc(NCC5CCOCC5)c([N+](=O)[O-])c4)c(Oc4cnc5[nH]ccc5c4)c3)CC2)=C(c2ccc(Cl)cc2)C1` [Venetoclax] + COc1cc(Nc2ncc3c(n2)-c2ccc(Cl)cc2C(c2c(F)cccc2OC)=NC3)ccc1C(=O)O [Alisertib] (first compound max 1 µM, 7x7, partner max 10 µM): the Bliss excess in [1] was 0.125; in [2], -0.0544; in [3] it was -0.0043. Also, the “combination Emax” value in test [4] amounted to 0.279; in test [5] it was 0.277; in [6] it was 0.147; in [7], 0.574; in test [8], 0.647; in test [9], 0.423. Moreover, the “combination Emax” value is 0.392 in test [10]; 0.661 in test [11]; 0.968 in [12]; 0.253 in test [13]; 0.476 in test [14]; 1 in test [15]. For the same compound, the “combination Emax” value in [16] was 0.448; in test [17], 0.629; in test [18], 0.212; in test [19], 0.326; in test [20], 0.137.

Take `C[C@@H](c1ccc2nccn2c1)n1nnc2ncc(-c3cnn(C)c3)nc21` [Savolitinib] + CC1(C)CCC(CN2CCN(c3ccc(C(=O)NS(=O)(=O)c4ccc(NCC5CCOCC5)c([N+](=O)[O-])c4)c(Oc4cnc5[nH]ccc5c4)c3)CC2)=C(c2ccc(Cl)cc2)C1 [Venetoclax] (first compound max 1 µM, 7x7, partner max 1 µM): the results for the Bliss excess in test [1], in test [2] and in test [3] were 0.0535, -0.0546 and -0.0238, respectively. Besides, the “combination Emax” value in [4] stood at 0.117; in [5] it was 0.179; in test [6] it was 0.199; in [7], 0.124; in [8] it was 0.113; in test [9], 0.116. Besides, the “combination Emax” value in [10] worked out at 0.155; in test [11], 0.213; in test [12], 0.392; in test [13], 0.138; in test [14], 0.163; in test [15], 0.163. Also, the “combination Emax” value is 0.125 in test [16]; 0.0828 in test [17]; 0.137 in test [18]; 0.153 in [19]; 0.127 in [20].

As to `Cc1c2c(nn1C)CSCc1cc(n(C)n1)CSc1cc(c3ccccc3c1)OCCCc1c(C(=O)O)n(C)c3c-2c(Cl)ccc13` [AZD5991] + Cn1cnc2c(F)c(Nc3ccc(Br)cc3Cl)c(C(=O)NOCCO)cc21 [Selumetinib] (first compound max 1 µM, 7x7, partner max 3 µM), the Bliss excess in [1] was 0.0693; in test [2] it was -0.0076; in [3], 0.048. The “combination Emax” value in test [4] was 0.344; in test [5] it was 0.209; in [6], 0.776; in test [7], 0.395; in test [8], 0.24; in test [9], 0.998. In addition, the “combination Emax” value is 0.375 in [10]; 0.999 in test [11]; 0.496 in test [12]; 0.318 in [13]; 0.352 in test [14]; 0.744 in test [15]. Also, the “combination Emax” value in test [16] stood at 0.573; in test [17] it was 0.818; in test [18], 0.305; in test [19], 0.364; in test [20], 0.281.

Take `Cc1nc(Nc2ncc(C(=O)Nc3c(C)cccc3Cl)s2)cc(N2CCN(CCO)CC2)n1` [Dasatinib] + CC(=O)Nc1cccc(-n2c(=O)n(C3CC3)c(=O)c3c(Nc4ccc(I)cc4F)n(C)c(=O)c(C)c32)c1 [Trametinib] (first compound max 2 µM, 7x7, partner max 1 µM): the results for the Bliss excess in test [1], in [2] and in test [3] were 0.105, -0.026 and -0.0216, respectively. Also, the “combination Emax” value in test [4] amounted to 0.556; in test [5] it was 0.439; in test [6] it was 0.788; in test [7], 0.793; in [8], 0.917; in [9], 0.227. For the same compound, the “combination Emax” value in test [10] worked out at 0.125; in [11], 0.407; in test [12], 0.425; in test [13], 0.391; in [14], 0.524; in [15] it was 0.202. Besides, the “combination Emax” value in [16] amounted to 0.955; in test [17], 0.994; in test [18] it was 0.329; in test [19] it was 0.344; in test [20], 0.0302.

Take `CC1(C)CCC(CN2CCN(c3ccc(C(=O)NS(=O)(=O)c4ccc(NCC5CCOCC5)c([N+](=O)[O-])c4)c(Oc4cnc5[nH]ccc5c4)c3)CC2)=C(c2ccc(Cl)cc2)C1` [Venetoclax] + Cn1cnc2c(F)c(Nc3ccc(Br)cc3Cl)c(C(=O)NOCCO)cc21 [Selumetinib] (first compound max 1 µM, 7x7, partner max 3 µM): the Bliss excess in [1] is 0.0847; in [2], -0.0275; in test [3] it was 0.0165. In addition, the “combination Emax” value in [4] was 0.285; in test [5], 0.162; in test [6], 0.731; in test [7] it was 0.415; in [8], 0.578; in test [9], 0.306. Besides, the “combination Emax” value in test [10] was found to be 0.396; in test [11], 0.286; in [12], 0.432; in [13], 0.295; in [14] it was 0.284; in test [15] it was 0.303. For the same compound, the “combination Emax” value in test [16] is 0.443; in test [17], 0.727; in test [18], 0.16; in test [19], 0.0758; in test [20] it was 0.159.

On to `CC(=O)Nc1cccc(-n2c(=O)n(C3CC3)c(=O)c3c(Nc4ccc(I)cc4F)n(C)c(=O)c(C)c32)c1` [Trametinib] + Cc1nc(-c2cn3c(n2)-c2ccc(-c4cnn(C(C)(C)C(N)=O)c4)cc2OCC3)n(C(C)C)n1 [Taselisib] (first compound max 1 µM, 7x7, partner max 10 µM), for which the figures for the Bliss excess in [1], in test [2] and in test [3] were 0.183, 0.112 and 0.106, respectively. Further, the “combination Emax” value in [4] came to 0.69; in test [5], 0.607; in test [6] it was 0.985; in [7], 0.932; in [8], 0.951; in test [9], 1. Also, the “combination Emax” value in test [10] came to 0.513; in [11], 0.589; in [12], 0.927; in [13] it was 0.766; in test [14], 0.589; in test [15] it was 0.49. The “combination Emax” value in test [16] is 0.951; in [17], 1; in test [18], 0.302; in test [19] it was 0.643; in test [20], 0.667.

The record behind these values is the supplement of paper PMC11061612.
